Structures can show the parent of a compound that is named as a salt.
Columns and labels:
ZIKV (MR766 strain) = experiment: Vero cell re-infection assay (infectious ZIKV in hNPC supernatant); format: cell-based, Zika virus; details: supernatant of hNPC cultures, 72 h after infection
Protocol: (A) Scheme of high content chemical screen. (B) Chemical structure of hit compounds. (C) Inhibitory curve and IC50 of HH or AQ on hNPCs (n=6). (D-H) Immunocytochemistry analysis (D), the quantification of the infection rate (E), the quantification of proliferation rate (F), the quantification of cell apoptosis rate (G) and the normalized cell viability (H) of hNPCs at 72 h after ZIKV (MR 766 strain) infection with or without drug treatment. Scale bars, 100 μm. The ZIKV infection rate is defined as the percentage of ZIKV E^+ cells. The proliferation rate is defined as the percentages of Ki67^+ cells. The cell apoptosis rate was defined as the percentage of cleaved-Caspase 3/CAS3^+ cells. The normalized cell viability was calculated by dividing the total cell number of each condition by the total cell number under mock infection conditions. (n=6). […] (K) Quantification of ZIKV infectious particles produced by ZIKV-infected hNPCs with or without compound treatment by the Vero cell reinfection assay. […] (M and N) Immunocytochemistry analysis (M) and quantification of the infection rate (N) of hNPCs at 72 h after ZIKV (PRVABC59 strain) infection with or without drug treatment (n=6). Scale bars, 100 μm. p values were calculated by one-way repeated measures ANOVA with a Bonferroni test for multiple comparisons. *p<0.05, **p<0.01 and ***p<0.001. […]

[1] = biological target: histamine-N-methyltransferase (Homo sapiens, UniProt P50135); details: Horton et al. 2005; cited from earlier work
histamine-N-methyltransferase, sequence (P50135 whole entry, species assumed): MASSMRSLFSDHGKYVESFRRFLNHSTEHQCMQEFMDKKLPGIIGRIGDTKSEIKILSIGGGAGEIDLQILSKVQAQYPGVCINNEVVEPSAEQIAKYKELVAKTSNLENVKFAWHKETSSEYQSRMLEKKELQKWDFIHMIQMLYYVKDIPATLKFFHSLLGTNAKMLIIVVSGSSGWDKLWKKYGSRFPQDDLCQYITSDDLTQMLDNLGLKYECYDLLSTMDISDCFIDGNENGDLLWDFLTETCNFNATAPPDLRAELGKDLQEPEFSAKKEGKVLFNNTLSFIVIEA

ZIKV (FSS13025 strain) = experiment: qRT-PCR of vRNA in human forebrain organoids treated 42 h or 48 h post-infection (FSS13025); format: cell-based, Zika virus; details: HH added at 42 h or 48 h post-infection, additional 3 days
Protocol: Immunocytochemical analysis of D20+4 ZIKV-infected organoids treated with 15 μM AQ or DMSO or with mock infection (n=3). D20+4 organoids were stained for SOX2, ZIKV E and with DAPI to monitor the ZIKV infection rate. D20+4 organoids were also stained for Ki67, CAS3 and with DAPI to monitor the cell proliferation and apoptosis rate. […] Scale bars, 100 μm. (B) The expression dynamics of ZIKV vRNA (FSS13025 strain) in human forebrain organoids. qRT-PCR analysis to quantify the total and replicating (−) strand vRNA levels in the human forebrain organoids at different time points post-infection. […] (C) qRT-PCR analysis of human forebrain organoids that were treated with 25 μM HH or DMSO at 42 h or 48 h post-ZIKV (FSS13025 strain) infection and maintained for additional 3 days. p values were calculated by unpaired two-tailed Student's t-test. *p<0.05, **p<0.01 and ***p<0.001, if not mentioned specifically.
To further validate the effect of HH on ZIKV-infected brain organoids, we first monitored ZIKV vRNA expression dynamics in organoids using qRT-PCR analysis.
RNA Extraction and qRT-PCR. Total RNA of cultured cells and organs was extracted with RNeasy plus mini kit (Qiagen). vRNA from cell culture supernatant or mouse serum was extracted with QIAampe viral RNA mini kit (Qiagen). […] ZIKV vRNA levels were calculated using a standard curve generated using serial 10-fold dilutions of ZIKV vRNA.

SMILES: CCN(CC)Cc1cc(Nc2ccnc3cc(Cl)ccc23)ccc1O [AQ, amodiaquine dihydrochloride dihydrate]
- production of infectious ZIKV, Vero cell re-infection assay (ZIKV (MR766 strain)): significantly suppressed
- inhibition of histamine-N-methyltransferase [1]: potent inhibitor

SMILES: CN1CCC2=C[C@H](O)[C@H]3OC(=O)c4cc5c(cc4[C@H]3[C@@H]21)OCO5 [HH, hippeastrine hydrobromide]
- total and replicating (-) ZIKV vRNA levels in forebrain organoids (ZIKV (FSS13025 strain)): significantly decreased
- production of infectious ZIKV, Vero cell re-infection assay (ZIKV (MR766 strain)): significantly suppressed
